Source: patent US20200032249A1, “LABELING, ISOLATION, & ANALYSIS OF RNA FROM RARE CELL POPULATIONS” (priority 2017, published 2020)

Experiments:
[1] = test system: MDA231 cells expressing CD/UPRT in mouse lungs; assay: signal-to-noise ratio of Flura-tagging and TU-tagging in vivo, lung colonization xenograft, RT-PCR; settings: 250 mg/kg, 12 h post injection
Method: FIG. 3 a-g. Flura-tagging of mRNA in vivo. FIG. 3a—Schematic diagram of lung colonization xenograft assay used for evaluation of Flura-tagging/Flura-seq. Athymic mice were injected through the tail vein with 50,000 MDA231 cells expressing CD/UPRT and GFP-luciferase. Upon the development of detectable bioluminescent lung metastases (4 weeks), mice were treated with doxycycline to induce CD/UPRT expression and injected with 5-FC. Lungs were harvested, and Flura-tagged mRNAs were immunopurified. FIG. 3b—Comparison of signal-to-noise ratio of Flura-tagging and TU-tagging in vivo. Mice were injected with either 5-FC or TU, the Flura-tagged or TU-tagged mRNAs were purified 12 h post injection, and the relative fold enrichment of representative human housekeeping genes relative to representative murine housekeeping genes (mHPRT1, mLDH1, mPGK1 and mGAPDH), normalized to their corresponding unpurified inputs, were measured by RT-PCR (n=5, ±S.E.). FIG. 3c—Quantification of the number of human cells in the mouse lungs used for Flura-tagging. Half of the mouse lungs used for Flura-tagging in FIG. 3b was dissociated into single cells, and the number of RFP+ cells was quantified using flow cytometry. The total number of MDA231 cells per lung was estimated based on an assumption of 1.5×10^8 cells per mouse lung (20) (n=5). […] RNA reads were aligned to a hybrid genome containing the human and mouse genomes. […]

MDA231 cells = assay: stress granule formation by G3BP immunostaining; type: cell-based; settings: 500 μM sodium arsenite, positive control
Method: FIG. 2a-b. Flura-tagging has minimal cytotoxicity. FIG. 2a—Effect of Flura-tagging on stress granule formation. MDA231 cells were treated with 5-FC for the indicated times, and the formation of stress granules was detected by G3BP immunostaining. Control cells were either treated with water or sodium arsenite (Arsenite) for one hour. Arrows indicate stress granules (n=3). Scale bar=20 μM. FIG. 2b—Effect of Flura-tagging on transcription. RNA expression in control cells was compared to CD/UPRT-expressing cells treated with the indicated concentrations of 5-FC for 4 h or 12 h. Each dot represents a gene, with the outer/lighter gray dots indicating genes showing more than 2-fold differential expression, as determined by DESeq2 (n=2). The dotted line represents the four-fold cutoff mark.
5-FU is extensively used as a chemotherapeutic agent for the treatment of solid tumors, based on its ability to induce cancer cell death by inhibiting thymidylate synthase and by causing DNA and RNA damage (12-14). It was therefore crucial to test whether our 5-FU-tagging method, which is based on low concentrations of 5-FC and short incubation time periods, has significant cytotoxic effects under our experimental conditions. CD/UPRT-expressing cells were treated with 5-FC at concentrations of up to 250 μM for up to 12 h (“Flura-tagged” cells), and the effects of this treatment on RNA damage response and transcriptional regulation were investigated.
A key feature of the RNA damage response is the formation of stress granules (15). Ras GTPase-activating protein-binding protein 1 (G3BP), a key component of stress granules, forms distinct foci during stress granule formation (12). We determined the dose- and time-dependent effect of 5-FC treatment on stress granule formation by immunostaining of the cells with anti-G3BP antibody. […] The 5-FC-treated cells started to form stress granules only after 24 h of treatment with 1 mM 5-FC, a concentration four times higher than the maximal concentration of 5-FC used for Flura-tagging, or after 48 h of 5-FC treatment at lower concentrations (FIG. 2a).
Human embryonic kidney transformed with […] (293T) and human breast cancer MDA-MB-231 (MDA231) cells were cultured in DMEM High Glucose medium (Wheaton) supplemented with 10% Fetal Bovine Serum (Clontech, Catalog number 631106) supplemented with 2 mM L-Glutamine. All cell lines have been routinely tested for mycoplasma contamination. For the induction of CD or CD and UPRT, cells were treated with 1 μg/ml doxycycline for 24 h. For Fluorouracil tagging, cells were treated with 250 μM of 5-FC or 5-FU unless indicated. Where indicated, 125 μM thymine was added together with 5-FC. […]

293T cells = assay: anti-BrdU immunofluorescent staining of 293T cells treated with 5-FC or 5-FU; type: cell-based, human; settings: untransfected control 293T cells, 250 μM, 24 h
Method: S. cerevisiae CD was exogenously expressed in human embryonic kidney 293T cells, and the cells were treated with 250 μM fluorocytosine (5-FC). This system is predicted to generate intracellular fluorouracil (5-FU), which is then incorporated into newly synthesized RNAs (FIG. 1a, b). Antibodies against bromodeoxyuridine (BrdU) can recognize BrdU and other halogenated uridines incorporated into nucleic acids (8).
Human embryonic kidney transformed with […] (293T) and human breast cancer MDA-MB-231 (MDA231) cells were cultured in DMEM High Glucose medium (Wheaton) supplemented with 10% Fetal Bovine Serum (Clontech, Catalog number 631106) supplemented with 2 mM L-Glutamine. All cell lines have been routinely tested for mycoplasma contamination. For the induction of CD or CD and UPRT, cells were treated with 1 μg/ml doxycycline for 24 h. For Fluorouracil tagging, cells were treated with 250 μM of 5-FC or 5-FU unless indicated. Where indicated, 125 μM thymine was added together with 5-FC. For the formation of stress granules, cells were treated with 500 μM Sodium Arsenite (Santa Cruz Biotechnologies, Catalog number SC-301816).
Cells were fixed with 4% paraformaldehyde for 10 min, permeabilized with 0.2% TritonX-100 for 10 min, blocked with 5% BSA for one hour at room temperature, prior to incubation with primary antibodies at 4° C. overnight, and secondary antibodies (Thermo Fisher anti-chicken antibody, Catalog number A-11039, Thermo Fisher anti-rat antibody, Catalog number A-11006, Abcam anti-rat antibody, Catalog number ab150117) incubated for 1 h at room temperature. Mouse lungs were fixed in 4% paraformaldehyde overnight at 4° C., embedded in paraffin and sectioned. The lung sections were deparaffinized and stained with hematolxylin/eosin or immunostained using standard protocols. Automated image analysis was performed using the FIJI software package.

O=c1cc[nH]c(=S)[nH]1 [thiouracil]
enrichment of human mRNAs compared to mouse mRNAs [1]: approximately 10 fold

O=[As]O [sodium arsenite]
time to formation of distinct G3BP foci (MDA231 cells): ≤ 1 h

O=c1[nH]cc(F)c(=O)[nH]1 [5-FU, 5-fluoro-uracil]
immunostaining with anti-BrdU antibody (293T cells): positive immunostaining
